Source: patent US20020082420A1, “Bicyclic heterocycles, pharmaceutical compositions containing them, their use, and processes for preparing them” (priority 2000, published 2002)

Assays:
[1] = molecular target: T1, human EGF-R (Homo sapiens, UniProt P00533); assay: Inhibition of EGF-dependent proliferation of F/L-HERc cells (Cell Titer 96 assay); type: cell-based; details: F/L-HERc cells (murine IL-3-dependent line expressing human EGF-R), stimulated with EGF 20 ng/ml, 48 hours at 37° C.
T1 construct: expressed in transfected cells; host or cells: F/L-HERc cells (murine IL-3-dependent FDC-P1 line transduced with an LXSN retroviral vector carrying human EGF-R cDNA; packaging line GP+E86)
T1 sequence (P00533 25-1210): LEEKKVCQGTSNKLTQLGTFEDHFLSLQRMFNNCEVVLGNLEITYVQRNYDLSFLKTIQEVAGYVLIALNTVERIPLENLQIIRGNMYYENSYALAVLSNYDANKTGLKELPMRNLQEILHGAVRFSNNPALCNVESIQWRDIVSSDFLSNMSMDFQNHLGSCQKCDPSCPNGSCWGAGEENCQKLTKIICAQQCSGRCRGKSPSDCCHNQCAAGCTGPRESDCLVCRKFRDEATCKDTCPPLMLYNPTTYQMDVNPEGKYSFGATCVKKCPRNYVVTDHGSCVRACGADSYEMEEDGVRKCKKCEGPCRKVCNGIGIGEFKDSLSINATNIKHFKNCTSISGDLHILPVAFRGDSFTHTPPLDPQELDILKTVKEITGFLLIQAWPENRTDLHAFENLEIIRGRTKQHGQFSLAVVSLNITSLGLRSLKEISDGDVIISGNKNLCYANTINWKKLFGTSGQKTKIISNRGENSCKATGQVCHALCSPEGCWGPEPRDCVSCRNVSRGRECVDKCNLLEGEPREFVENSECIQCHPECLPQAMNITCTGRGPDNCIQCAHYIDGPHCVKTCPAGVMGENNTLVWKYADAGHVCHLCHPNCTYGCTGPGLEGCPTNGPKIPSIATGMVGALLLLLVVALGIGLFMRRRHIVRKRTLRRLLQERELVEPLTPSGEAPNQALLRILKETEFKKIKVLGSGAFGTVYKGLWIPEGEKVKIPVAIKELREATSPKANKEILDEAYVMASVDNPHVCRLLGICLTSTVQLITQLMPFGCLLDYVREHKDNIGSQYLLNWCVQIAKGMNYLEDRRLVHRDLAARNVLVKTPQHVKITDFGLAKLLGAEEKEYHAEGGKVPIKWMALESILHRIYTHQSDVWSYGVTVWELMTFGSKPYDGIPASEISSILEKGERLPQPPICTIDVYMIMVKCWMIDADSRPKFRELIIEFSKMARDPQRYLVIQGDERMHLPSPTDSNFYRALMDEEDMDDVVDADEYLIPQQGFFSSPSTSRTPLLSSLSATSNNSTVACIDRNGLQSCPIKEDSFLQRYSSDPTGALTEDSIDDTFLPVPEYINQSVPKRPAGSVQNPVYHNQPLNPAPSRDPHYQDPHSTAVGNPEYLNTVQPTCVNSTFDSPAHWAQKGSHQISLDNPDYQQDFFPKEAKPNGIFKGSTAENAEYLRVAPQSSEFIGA
Source text: A cell line of murine origin dependent on interleukin-3-(IL-3) which was genetically modified to express functional human EGF-R was used here. The proliferation of these cells known as F/L-HERc can therefore be stimulated either by murine IL-3 or by EGF (cf T. von Ruiden et al., EMBO J. 7, 2749-2756 (1988) and J. H. Pierce et al., Science 239, 628-631 (1988)).
The starting material used for the F/L-HERc cells was the cell line FDC-P1, the production of which has been described by T. M. Dexter et al., J. Exp. Med. 152. 1036-1047 (1980). Alternatively, however, other growth-factor-dependent cells may also be used (cf., e.g., J.H. Pierce et al., Science 239, 628-631 (1988); H. Shibuya et al., Cell 70, 57-67 (1992); and W. S. Alexander et al., EMBO J. 10, 3683-3691 (1991)). For expressing the human EGF-R cDNA (cf A. Ullrich et al., Nature 309, 418-425 (1984)) recombinant retroviruses were used as described by T. von Ruiden et al., EMBO J. 7, 2749-2756 (1988), except that the retroviral vector LXSN (cf A. D. Miller et al., BioTechniques 7, 980-990 (1989)) was used for the expression of the EGF-R cDNA and the line GP+E86 (cf D. Markowitz et al., J. Virol. 62, 1120-1124 (1988)) was used as the packaging cell.
The test was performed as follows:
F/L-HERc cells were cultivated in RPMI/1640 medium (BioWhittaker), supplemented with 10% fetal calf serum (FCS, Boehringer Mannheim), 2 mM glutamine (BioWhittaker), standard antibiotics and 20 ng/ml of human EGF (Promega), at 37° C. and 5% CO2. In order to investigate the inhibitory activity of the compounds according to the invention, 1.5×10^4 cells per well were cultivated in triplicate in 96-well plates in the above medium (200 μl), the cell proliferation being stimulated with either EGF (20 ng/ml) or murine IL-3. The IL-3 used was obtained from culture supernatants of the cell line X63/0 mIL-3 (cf H. Karasuyama et al., Eur. J. Immunol. 18, 97-104 (1988)). The compounds according to the invention were dissolved in 100% dimethylsulfoxide (DMSO) and added to the cultures in various dilutions, the maximum DMSO concentration being 1%. The cultures were incubated for 48 hours at 37° C.
In order to determine the inhibitory activity of the compounds according to the invention the relative cell number was measured in O.D. units using the Cell Titer 96™ Aqueous Non-Radioactive Cell Proliferation Assay (Promega). The relative cell number was calculated as a percentage of the control (F/LHERc cells without inhibitor) and the concentration of active substance which inhibits the proliferation of the cells by 50% (IC50) was derived therefrom.

melting point | IC50 [1] | Structure (SMILES)
213 °C (dec.) | 1450 nM | O=C(O)CCN1CCC(N2CCN(c3ncc4ncnc(Nc5ccc(F)c(Cl)c5)c4n3)CC2)CC1 [1(8), 4-[(3-chloro-4-fluorophenyl)amino]-6-{4-[1-(2-carboxyethyl)piperidin-4-yl]piperazin-1-yl}pyrimido[5,4-d]pyrimidine]
139 to 165 °C (dec.) | 2320 nM | CN(CCC(=O)O)C1CCN(c2ncc3ncnc(Nc4ccc(F)c(Cl)c4)c3n2)CC1 [1(11), 4-[(3-chloro-4-fluorophenyl)amino]-6-[4-[N-(2-carboxyethyl)-N-methylamino]piperidin-1-yl]pyrimido[5,4-d]pyrimidine]
179 to 182 °C | 2040 nM | CCOC(=O)CN1CCN(c2ncc3ncnc(Nc4ccc(F)c(Cl)c4)c3n2)CC1 [2(10), 4-[(3-chloro-4-fluorophenyl)amino]-6-[4-[(ethoxycarbonyl)methyl]piperazin-1-yl]pyrimido[5,4-d]pyrimidine]
240 °C (dec.) | 2300 nM | O=C(O)CN1CCN(c2ncc3ncnc(Nc4ccc(F)c(Cl)c4)c3n2)CC1 [Example 1(6), 4-[(3-chloro-4-fluorophenyl)amino]-6-[4-(carboxymethyl)piperazin-1-yl]pyrimido[5,4-d]pyrimidine]
 | 129 nM | COC(=O)CN(C)CC1CCN(c2ncc3ncnc(Nc4ccc(F)c(Cl)c4)c3n2)CC1 [2(19), 4-[(3-chloro-4-fluorophenyl)amino]-6-[4-({N-[(methoxycarbonyl)methyl]-N-methylamino}methyl)piperidin-1-yl]pyrimido[5,4-d]pyrimidine]
 | 1760 nM | COC(=O)CCN(C)C1CCN(c2ncc3ncnc(Nc4ccc(F)c(Cl)c4)c3n2)CC1 [2(15), 4-[(3-chloro-4-fluorophenyl)amino]-6-(4-{N-[2-(methoxycarbonyl)ethyl]-N-methylamino}piperidin-1-yl)pyrimido[5,4-d]pyrimidine]
 | 810 nM | CCOC(=O)CCN1CCC(N2CCN(c3ncc4ncnc(Nc5ccc(F)c(Cl)c5)c4n3)CC2)CC1 [2(12), 4-[(3-chloro-4-fluorophenyl)amino]-6-(4-{1-[2-(ethoxycarbonyl)ethyl]piperidin-4-yl}piperazin-1-yl)pyrimido[5,4-d]pyrimidine]
226 to 235 °C |  | O=C(O)CNCC1CCN(c2ncc3ncnc(Nc4ccc(F)c(Cl)c4)c3n2)CC1 [Example 1(17), 4-[(3-chloro-4-fluorophenyl)amino]-6-(4-{[(carboxymethyl)amino]methyl}piperidin-1-yl)pyrimido[5,4-d]pyrimidine]
184 to 186 °C |  | O=C(CN1CCC(Nc2ncc3ncnc(Nc4ccc(F)c(Cl)c4)c3n2)CC1)OC1CCCCC1 [Example 2(4), 4-[(3-chloro-4-fluorophenyl)amino]-6-({1-[(cyclohexyloxycarbonyl)methyl]piperidin-4-yl}amino)pyrimido[5,4-d]pyrimidine]
134 to 135 °C |  | COC(=O)CCNC1(C)CCN(c2ncc3ncnc(Nc4ccc(F)c(Cl)c4)c3n2)CC1 [Example 6(3), 4-[(3-chloro-4-fluorophenyl)amino]-6-{4-methyl-4-[2-(methoxycarbonyl)ethyl]aminopiperidin-1-yl}pyrimido[5,4-d]pyrimidine]
157 to 160 °C |  | CC1(NCCC(=O)O)CCN(c2ncc3ncnc(Nc4ccc(F)c(Cl)c4)c3n2)CC1 [Example 1(30), 4-[(3-chloro-4-fluorophenyl)amino]-6-{4-methyl-4-[(2-carboxyethyl)amino]piperidin-1-yl}pyrimido[5,4-d]pyrimidine]
277 to 282 °C |  | NC1(C(=O)O)CCN(c2ncc3ncnc(Nc4ccc(F)c(Cl)c4)c3n2)CC1 [Example 1(14), 4-[(3-chloro-4-fluorophenyl)amino]-6-(4-amino-4-carboxypiperidin-1-yl)pyrimido[5,4-d]pyrimidine]
145 to 165 °C |  | O=C(O)CCCN1CCC(Nc2ncc3ncnc(Nc4ccc(F)c(Cl)c4)c3n2)CC1 [Example 1(2), 4-[(3-chloro-4-fluorophenyl)amino]-6-{[1-(3-carboxypropyl)piperidin-4-yl]amino}pyrimido[5,4-d]pyrimidine]

Second part, the compound before the results:

Structure (SMILES) | melting point | IC50 [1]
COC(=O)C(C(=O)OC)N1CCC(Nc2ncc3ncnc(Nc4ccc(F)c(Cl)c4)c3n2)CC1 [3(18)] |  | 40 nM
CCOC(=O)CN(CC(=O)OCC)[C@H]1CC[C@H](Nc2ncc3ncnc(Nc4ccc(F)c(Cl)c4)c3n2)CC1 [3(4), 4-[(3-chloro-4-fluorophenyl)amino]-6-[(trans-4-{N,N-bis-[(ethoxycarbonyl)methyl]amino}cyclohex-1-yl)amino]pyrimido[5,4-d]pyrimidine] |  | 58 nM
COC(=O)CN1CCCC(Nc2ncc3ncnc(Nc4cccc(Br)c4)c3n2)C1 (stereo not shown) [3(17), 4-[(3-bromophenyl)amino]-6-({1-[(methoxycarbonyl)methyl]piperidin-3-yl}amino)pyrimido[5,4-d]pyrimidine] |  | 17 nM
O=C(O)CN1CCC(Nc2ncc3ncnc(Nc4ccc(F)c(Cl)c4)c3n2)CC1 [Example 1, 4-[(3-chloro-4-fluorophenyl)amino]-6-{ [1-(carboxymethyl)piperidin-4-yl]amino}pyrimido[5.4-d]pyrimidine] | 202 to 205 °C | 840 nM
CN(CC(=O)O)[C@H]1CC[C@H](Nc2ncc3ncnc(Nc4ccc(F)c(Cl)c4)c3n2)CC1 [1(3), 4-[(3-chloro-4-fluorophenyl)amino]-6-({trans-4-[N-(carboxymethyl)-N-methylamino]cyclohex-1-yl}amino)pyrimido[5,4-d]pyrimidine] | 220 to 228 °C | 320 nM
CCOP(=O)(CN1CCC(Nc2ncc3ncnc(Nc4cccc(Br)c4)c3n2)CC1)OCC [4(1), 4-[(3-bromophenyl)amino]-6-({1-[(diethoxyphosphoryl)methyl]piperidin-4-yl}amino)pyrimido[5,4-d]pyrimidine] |  | 40 nM
COC(=O)CN1CCC(Nc2ncc3ncnc(Nc4ccc5[nH]ccc5c4)c3n2)CC1 [2(28), 4-[(indol-5-yl)amino]-6-({1-[(methoxycarbonyl)methyl]piperidin-4-yl}amino)pyrimido [5,4-d]pyrimidine] | 167 °C | 26 nM
COC(=O)CN[C@H]1CC[C@H](Nc2ncc3ncnc(Nc4ccc(F)c(Cl)c4)c3n2)CC1 [3(10), 4-[(3-chloro-4-fluorophenyl)amino]-6-[(trans-4-{[(methoxycarbonyl)methyl]amino}cyclohex-1-yl)amino]pyrimido[5,4-d]pyrimidine] |  | 16 nM
CCOP(C)(=O)CN1CCC(Nc2ncc3ncnc(Nc4cccc(Br)c4)c3n2)CC1 (stereo not shown) [4(2), 4-[(3-bromophenyl)amino]-6-[(1-{[(ethoxy)(methyl)phosphoryl]methyl}piperidin-4-yl)amino]pyrimido [5,4-d]pyrimidine] |  | 40 nM
COC(=O)C(C(=O)OC)N1CCC(Nc2ncc3ncnc(Nc4cccc(Br)c4)c3n2)CC1 [3(16)] |  | 20 nM
COC(=O)CN(CC(=O)OC)[C@H]1CC[C@H](Nc2ncc3ncnc(Nc4ccc(F)c(Cl)c4)c3n2)CC1 [3(5), 4-[(3-chloro-4-fluorophenyl)amino]-6-[(trans-4-{N,N-bis-[(methoxycarbonyl)methyl]amino}cyclohex-1-yl)amino]pyrimido [5,4-d]pyrimidine] |  | 20 nM
